Source: patent US9201014B2, “Development of photostable near-IR cyanine dyes for in vivo imaging” (National University of Singapore, priority 2010, dated 2015)

Key:
Type in all cases: physicochemical
[1] = Characterization of the CyNAMLA library (absorbance maximum wavelengths); settings: absorbance maximum wavelength of CyNAMLA library compounds
Description: The amine group of 21 was protected using di-tert-butyl dicarbonate then derivatized with 80 different primary amines (for structures, see FIGS. 14A-14D). After acetylation of the newly-introduced amine, the compounds were treated with a solution of TFA-DCM (1:9) to remove the tert-butylcarbamate protecting group. The deprotected amine was then coupled to lipoic acid to yield CyNAMLA derivatives with an average purity of 90% (for HPLC-determined purities, see Table 6).

[2] = Primary screen of SERS intensities of CyNAMLA-functionalized AuNPs (compact Raman scanner); settings: for Raman intensity: SERS spectra of CyNAMLA-functionalized AuNPs, excitation at 785 nm, laser power 60 mW
Description: FIG. 15 is a graph of the comparative surface-enhanced Raman spectroscopy (SERS) intensities of members of the CyNAMLA library measured with an excitation wavelength of 785 nm and a laser power of 60 mW in a compact Raman scanner.
The CyNAMLA compounds were adsorbed onto AuNPs having a diameter of approximately 60 nm, and the SERS properties of the resulting CyNAMLA-functionalized AuNPs were evaluated using a compact Raman scanner. Among metal nanoparticles, AuNPs are particularly suitable for in vivo applications due to their low toxicity, adaptability to bioconjugation, and reproducible signal intensity and quantification.

[3] = Primary screening of photostability of the CyNA library (time-course fluorescence, 8 h); parameters: F/Fo, fluorescent intensity at 8 hours vs 0 hours: unit: %; settings: 10 μM in HEPES 100 mM pH 7.4, 2% DMSO
Summary of the method: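 CyNA dyes at 10 μM in 100 mM HEPES pH 7.4 with 2% DMSO irradiated by xenon lamp for 8 h. Fluorescence (ex/em 790-820 nm) read every 10 min; stability given as F8h/Fo.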

[4] = Absorbance and fluorescence maximum wavelengths and quantum yields of the CyNA library; settings: for λabs, absorbance maximum wavelength / λem, fluorescence maximum wavelength: CyNA library; for φ, quantum yield: in DMSO, Cardiogreen as standard
Summary of the method: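 Absorption and emission maxima and quantum yields of the 80-member amine-derivatized CyNA library were measured on a plate spectrophotometer.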

SMILES | λabs (max) [1] | Raman intensity [2] | SERS intensity compared to DTTC, primary screen ([2]; on AuNPs, 785 nm, 60 mW) | F/Fo, fluorescent intensity at 8 hours vs 0 hours [3] | max RFU, maximum relative fluorescence units [3] | λabs, absorbance maximum wavelength [4] | λem, fluorescence maximum wavelength [4] | φ, quantum yield [4]
CCCC(C)N(C(C)=O)C1=C(/C=C/C2=[N+](CCCNC(=O)CCCCC3CCSS3)c3ccccc3C2(C)C)CCC/C1=C\C=C1\N(CCC)c2ccccc2C1(C)C.O=C([O-])C(F)(F)F (stereo not shown) [CyNAMLA-185] | 805 nm | 4603 | – | – | – | – | – | –
CCCN1/C(=C/C=C2\CCCC(/C=C/C3=[N+](CCCNC(=O)CCCCC4CCSS4)c4ccccc4C3(C)C)=C2N(Cc2ccc(OC)cc2OC)C(C)=O)C(C)(C)c2ccccc21.O=C([O-])C(F)(F)F (stereo not shown) [CyNAMLA-358] | 804 nm | 1121 | – | – | – | – | – | –
CCCCCCCCCCCCCN(C(C)=O)C1=C(/C=C/C2=[N+](CCCNC(=O)CCCCC3CCSS3)c3ccccc3C2(C)C)CCC/C1=C\C=C1\N(CCC)c2ccccc2C1(C)C.O=C([O-])C(F)(F)F (stereo not shown) [CyNAMLA-55] | 805 nm | 1125 | – | – | – | – | – | –
CCCN1/C(=C/C=C2\CCCC(/C=C/C3=[N+](CCCNC(=O)CCCCC4CCSS4)c4ccccc4C3(C)C)=C2N(Cc2ccc(Cl)cc2Cl)C(C)=O)C(C)(C)c2ccccc21.O=C([O-])C(F)(F)F (stereo not shown) [CyNAMLA-531] | 805 nm | 5272 | – | – | – | – | – | –
CCCN1/C(=C/C=C2\CCCC(/C=C/C3=[N+](CCCNC(=O)CCCCC4CCSS4)c4ccccc4C3(C)C)=C2N(Cc2cc(OC)cc(OC)c2)C(C)=O)C(C)(C)c2ccccc21.O=C([O-])C(F)(F)F (stereo not shown) [CyNAMLA-262] | 805 nm | 27810 | exceeded the signal of DTTC | – | – | – | – | –
CCCN1/C(=C/C=C2\CCCC(/C=C/C3=[N+](CCCNC(=O)CCCCC4CCSS4)c4ccccc4C3(C)C)=C2N(Cc2cccc(OC)c2)C(C)=O)C(C)(C)c2ccccc21.O=C([O-])C(F)(F)F (stereo not shown) [CyNAMLA-387] | 804 nm | 3910 | – | – | – | – | – | –
CCCN1/C(=C/C=C2\CCCC(/C=C/C3=[N+](CCCNC(=O)CCCCC4CCSS4)c4ccccc4C3(C)C)=C2N(Cc2ccccc2C)C(C)=O)C(C)(C)c2ccccc21.O=C([O-])C(F)(F)F (stereo not shown) [CyNAMLA-101] | 803 nm | 2102 | – | – | – | – | – | –
CCCN1/C(=C/C=C2\CCCC(/C=C/C3=[N+](CCCNC(=O)CCCCC4CCSS4)c4ccccc4C3(C)C)=C2N(Cc2cccc(Br)c2)C(C)=O)C(C)(C)c2ccccc21.O=C([O-])C(F)(F)F (stereo not shown) [CyNAMLA-341] | 804 nm | 1071 | – | – | – | – | – | –
CCCN1/C(=C/C=C2\CCCC(/C=C/C3=[N+](CCCNC(=O)CCCCC4CCSS4)c4ccccc4C3(C)C)=C2N(Cc2cccc(C)c2)C(C)=O)C(C)(C)c2ccccc21.O=C([O-])C(F)(F)F (stereo not shown) [CyNAMLA-398] | 805 nm | 2629 | – | – | – | – | – | –
CCCN1/C(=C/C=C2\CCCC(/C=C/C3=[N+](CCCNC(=O)CCCCC4CCSS4)c4ccccc4C3(C)C)=C2N(Cc2c(OC)cc(OC)cc2OC)C(C)=O)C(C)(C)c2ccccc21.O=C([O-])C(F)(F)F (stereo not shown) [CyNAMLA-336] | 805 nm | 2548 | – | – | – | – | – | –
CCCN1/C(=C/C=C2\CCCC(/C=C/C3=[N+](CCCNC(=O)CCCCC4CCSS4)c4ccccc4C3(C)C)=C2N(CCc2cccc(F)c2)C(C)=O)C(C)(C)c2ccccc21.O=C([O-])C(F)(F)F (stereo not shown) [CyNAMLA-405] | 805 nm | 12149 | – | – | – | – | – | –
CCCCN(C(C)=O)C1=C(/C=C/C2=[N+](CCCNC(=O)CCCCC3CCSS3)c3ccccc3C2(C)C)CCC/C1=C\C=C1\N(CCC)c2ccccc2C1(C)C.O=C([O-])C(F)(F)F (stereo not shown) [CyNAMLA-373] | 804 nm | 2487 | – | – | – | – | – | –
CCCCC(CC)CN(C(C)=O)C1=C(/C=C/C2=[N+](CCCNC(=O)CCCCC3CCSS3)c3ccccc3C2(C)C)CCC/C1=C\C=C1\N(CCC)c2ccccc2C1(C)C.O=C([O-])C(F)(F)F (stereo not shown) [CyNAMLA-230] | 804 nm | 4341 | – | – | – | – | – | –
CCCN1/C(=C/C=C2\CCCC(/C=C/C3=[N+](CCCNC(=O)CCCCC4CCSS4)c4ccccc4C3(C)C)=C2N(CCN2CCCCC2)C(C)=O)C(C)(C)c2ccccc21.O=C([O-])C(F)(F)F (stereo not shown) [CyNAMLA-272] | 805 nm | 1986 | – | – | – | – | – | –
CCCN1/C(=C/C=C2\CCCC(/C=C/C3=[N+](CCCNC(=O)CCCCC4CCSS4)c4ccccc4C3(C)C)=C2N(C(C)=O)C2CCCCC2)C(C)(C)c2ccccc21.O=C([O-])C(F)(F)F (stereo not shown) [CyNAMLA-164] | 803 nm | 4777 | – | – | – | – | – | –
CCCN1/C(=C/C=C2\CCCC(/C=C/C3=[N+](CCC)c4ccccc4C3(C)C)=C2N(CCN2CCOCC2)C(C)=O)C(C)(C)c2ccccc21 [CyNA-282] | – | – | – | 90 | 820.1 | 805 nm | 819 nm | 0.09
CCCCCN(C(C)=O)C1=C(/C=C/C2=[N+](CCC)c3ccccc3C2(C)C)CCC/C1=C\C=C1\N(CCC)c2ccccc2C1(C)C [CyNA-419] | – | – | – | 91 | 835.2 | 804 nm | 820 nm | 0.13
CCCN1/C(=C/C=C2\CCCC(/C=C/C3=[N+](CCC)c4ccccc4C3(C)C)=C2N(C(C)=O)C2CCN(Cc3ccccc3)CC2)C(C)(C)c2ccccc21 [CyNA-107] | – | – | – | 50 | 275.3 | 803 nm | 820 nm | 0.07
CCCN1/C(=C/C=C2\CCCC(/C=C/C3=[N+](CCC)c4ccccc4C3(C)C)=C2N(CC(C)C)C(C)=O)C(C)(C)c2ccccc21 [CyNA-487] | – | – | – | 30 | 45.3 | 806 nm | 823 nm | 0.04
CCCN1/C(=C/C=C2\CCCC(/C=C/C3=[N+](CCC)c4ccccc4C3(C)C)=C2N(Cc2ccco2)C(C)=O)C(C)(C)c2ccccc21 [CyNA-446] | – | – | – | 85 | 709.2 | 804 nm | 821 nm | 0.08
CCCN1/C(=C/C=C2\CCCC(/C=C/C3=[N+](CCC)c4ccccc4C3(C)C)=C2N(Cc2ccccc2Cl)C(C)=O)C(C)(C)c2ccccc21 [CyNA-364] | – | – | – | 98 | 264.8 | 804 nm | 821 nm | 0.05
CCCN1/C(=C/C=C2\CCCC(/C=C/C3=[N+](CCC)c4ccccc4C3(C)C)=C2N(CC2CCCCC2)C(C)=O)C(C)(C)c2ccccc21 [CyNA-382] | – | – | – | 85 | 294.6 | 804 nm | 820 nm | 0.08
CCCN1/C(=C/C=C2\CCCC(/C=C/C3=[N+](CCC)c4ccccc4C3(C)C)=C2N(CC(c2ccccc2)c2ccccc2)C(C)=O)C(C)(C)c2ccccc21 [CyNA-548] | – | – | – | – | 67.6 | 804 nm | 820 nm | 0.04
CCCN1/C(=C/C=C2\CCCC(/C=C/C3=[N+](CCC)c4ccccc4C3(C)C)=C2N(CCCOCC)C(C)=O)C(C)(C)c2ccccc21 [CyNA-167] | – | – | – | 92 | 1031.8 | 804 nm | 818 nm | 0.10
CCCCCCCCCCN(C(C)=O)C1=C(/C=C/C2=[N+](CCC)c3ccccc3C2(C)C)CCC/C1=C\C=C1\N(CCC)c2ccccc2C1(C)C [CyNA-407] | – | – | – | – | 22.5 | 805 nm | 820 nm | 0.08
CCCCCCCCCCCN(C(C)=O)C1=C(/C=C/C2=[N+](CCC)c3ccccc3C2(C)C)CCC/C1=C\C=C1\N(CCC)c2ccccc2C1(C)C [CyNA-567] | – | – | – | 100 | 279.2 | 805 nm | 820 nm | 0.14
CCCN1/C(=C/C=C2\CCCC(/C=C/C3=[N+](CCC)c4ccccc4C3(C)C)=C2N(CCc2ccc(O)cc2)C(C)=O)C(C)(C)c2ccccc21 [CyNA-346] | – | – | – | 69 | 434.2 | 804 nm | 822 nm | 0.07
CCCN1/C(=C/C=C2\CCCC(/C=C/C3=[N+](CCC)c4ccccc4C3(C)C)=C2N(C(C)=O)C2CCCC2)C(C)(C)c2ccccc21 [CyNA-180] | – | – | – | 91 | 991.3 | 805 nm | 821 nm | 0.14
